According to patent publication US20160333419A1, “GENE SIGNATURES ASSOCIATED WITH SENSITIVITY TO MDM2 INHIBITORS” (DAIICHI SANKYO COMPANY, LIMITED, priority 2014, published 2016):

Key:
Assay in all cases: OncoPanel cytotoxicity assay
Assay type in all cases: cell-based
[1] = system: C-4 I; conditions: Homo sapiens, 72 hour incubation
Summary of the method: (§1)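 Cells grown in RPMI 1640 with 10% FBS (or a special medium) at 37° C, 5% CO2 were treated 24 hours after seeding for 72 hours with 10 concentrations (3.16-fold dilutions, 0.1% DMSO final). Nuclei were dye-stained and imaged; IC50 was fit from percent of control relative cell count.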

[2] = system: SW1116; conditions: Homo sapiens, SW 1116, 72 hour incubation
Summary of the method: as §1

[3] = system: SNU-423; conditions: Homo sapiens, 72 hour incubation
Summary of the method: as §1

[4] = system: D283 Med; conditions: Homo sapiens, 72 hour incubation
Summary of the method: as §1

[5] = system: ST486; conditions: Homo sapiens, 72 hour incubation
Summary of the method: as §1

[6] = system: DoTc2 4510; conditions: Homo sapiens, 72 hour incubation
Summary of the method: as §1

[7] = system: WiDr; conditions: Homo sapiens, 72 hour incubation
Summary of the method: as §1

[8] = system: CGTH-W-1; conditions: Homo sapiens, 72 hour incubation
Summary of the method: as §1

[9] = system: NCI-H460; conditions: Homo sapiens, 72 hour incubation
Summary of the method: as §1

[10] = system: Raji; conditions: Homo sapiens, 72 hour incubation
Summary of the method: as §1

[11] = system: AU565; conditions: Homo sapiens, 72 hour incubation
Summary of the method: as §1

[12] = system: HT-1080; conditions: Homo sapiens, 72 hour incubation
Summary of the method: as §1

[13] = system: HLE; conditions: Homo sapiens, 72 hour incubation
Summary of the method: as §1

[14] = system: SiHa; conditions: Homo sapiens, 72 hour incubation
Summary of the method: as §1

[15] = system: Hs 695T; conditions: Homo sapiens, 72 hour incubation
Summary of the method: as §1

[16] = system: RD; conditions: Homo sapiens, 72 hour incubation
Summary of the method: as §1

[17] = system: C32TG; conditions: Homo sapiens, 72 hour incubation
Summary of the method: as §1

[18] = system: MV-4-11; conditions: Homo sapiens, MV4-11, 72 hour incubation
Summary of the method: as §1

[19] = system: SW48; conditions: Homo sapiens, 72 hour incubation
Summary of the method: as §1

[20] = system: HEL-92-1-7; conditions: Homo sapiens, HEL 92.1.7, 72 hour incubation
Summary of the method: as §1

[21] = system: SKMES1; conditions: Homo sapiens, SK-MES-1, 72 hour incubation
Summary of the method: as §1

[22] = system: A101D; conditions: Homo sapiens, 72 hour incubation
Summary of the method: as §1

[23] = system: G-401; conditions: Homo sapiens, 72 hour incubation
Summary of the method: as §1

[24] = system: BeWo; conditions: Homo sapiens, 72 hour incubation
Summary of the method: as §1

[25] = system: Capan-1; conditions: Homo sapiens, 72 hour incubation
Summary of the method: as §1

[26] = system: MHH-PREB-1; conditions: Homo sapiens, 72 hour incubation
Summary of the method: as §1

[27] = system: UM-UC-3; conditions: Homo sapiens, UMUC3, 72 hour incubation
Summary of the method: as §1

[28] = system: C-4 II; conditions: Homo sapiens, 72 hour incubation
Summary of the method: as §1

[29] = system: KHOS-240S; conditions: Homo sapiens, 72 hour incubation
Summary of the method: as §1

[30] = system: MALME3M; conditions: Homo sapiens, Malme-3M, 72 hour incubation
Summary of the method: as §1

[31] = system: SCC-25; conditions: Homo sapiens, 72 hour incubation
Summary of the method: as §1

[32] = system: NCIH446; conditions: Homo sapiens, NCI-H446, 72 hour incubation
Summary of the method: as §1

[33] = system: CHL-1; conditions: Homo sapiens, 72 hour incubation
Summary of the method: as §1

[34] = system: U266B1; conditions: Homo sapiens, 72 hour incubation
Summary of the method: as §1

[35] = system: PANC-1; conditions: Homo sapiens, 72 hour incubation
Summary of the method: as §1

[36] = system: SW1353; conditions: Homo sapiens, 72 hour incubation
Summary of the method: as §1

[37] = system: SK-UT-1; conditions: Homo sapiens, 72 hour incubation
Summary of the method: as §1

[38] = system: EB-3; conditions: Homo sapiens, 72 hour incubation
Summary of the method: as §1

[39] = system: Caki-1; conditions: Homo sapiens, 72 hour incubation
Summary of the method: as §1

SMILES | IC50 [1] | IC50 [2] | IC50 [3] | IC50 [4] | IC50 [5] | IC50 [6] | IC50 [7] | IC50 [8] | IC50 [9] | IC50 [10] | IC50 [11] | IC50 [12] | IC50 [13] | IC50 [14] | IC50 [15] | IC50 [16] | IC50 [17] | IC50 [18] | IC50 [19] | IC50 [20] | further results
CC[C@@H]1CNC2(CC2)CN1C(=O)[C@@H]1C[C@@H](F)CN1C(=O)C1=C(C(C)C)N2C(=N[C@@](C)(c3ccc(Cl)nc3)[C@H]2c2ccc(Cl)c(F)c2)S1 [Compound A, [(5R,6S)-5-(4-Chloro-3-fluorophenyl)-6-(6-chloropyridin-3-yl)-6-methyl-3-(propan-2-yl)-5,6-dihydroimidazo[2,1-b][1,3]thiazol-2-yl][(2S,4R)-2-{[(6R)-6-ethyl-4,7-diazaspiro[2.5]oct-7-yl]carbonyl}-4-fluoropyrrolidin-1-yl]methanone] | > 40 µM | > 40 µM | > 40 µM | 0.529 µM | 24.3 µM | 39.6 µM | 34.8 µM | > 40 µM | 0.515 µM | 13.8 µM | 23.7 µM | 0.282 µM | 28.9 µM | > 40 µM | 1.28 µM | > 40 µM | 0.36 µM | 0.372 µM | 1.09 µM | > 40 µM | IC50 [21]: 33.8 µM; IC50 [22]: 0.233 µM; IC50 [23]: 0.242 µM; IC50 [24]: 1.49 µM; IC50 [25]: > 40 µM; IC50 [26]: > 40 µM; IC50 [27]: > 40 µM; IC50 [28]: > 40 µM; IC50 [29]: > 40 µM; IC50 [30]: 1.04 µM; IC50 [31]: > 40 µM; IC50 [32]: > 40 µM; IC50 [33]: > 40 µM; IC50 [34]: > 40 µM; IC50 [35]: > 40 µM; IC50 [36]: 1.68 µM; IC50 [37]: > 40 µM; IC50 [38]: > 40 µM; IC50 [39]: 0.275 µM
CC1(C)CCC2(CC1)N[C@@H](C(=O)N[C@@H]1CC[C@@H](C(N)=O)OC1)[C@H](c1ccnc(Cl)c1F)[C@]21C(=O)Nc2cc(Cl)ccc21 [Compound B, (3′R,4′S,5′R)—N-[(3R,6S)-6-carbamoyltetrahydro-2H-pyran-3-yl]-6″-chloro-4′-(2-chloro-3-fluoropyridin-4-yl)-4,4-dimethyl-2″-oxo-1″,2″-dihydrodispiro[cyclohexane-1,2′-pyrrolidine-3′,3″-indole]-5′-carboxamide] | 7.21 µM | > 10 µM | > 10 µM | 0.0819 µM | 6.44 µM | > 10 µM | 5.58 µM | 8.04 µM | 0.0664 µM | 5.32 µM | > 10 µM | 0.062 µM | > 10 µM | > 10 µM | 0.174 µM | 7.2 µM | 0.0329 µM | 0.0254 µM | 0.125 µM | > 10 µM | IC50 [21]: 8.73 µM; IC50 [22]: 0.0314 µM; IC50 [23]: 0.0354 µM; IC50 [24]: 0.317 µM; IC50 [25]: > 10 µM; IC50 [26]: 8.3 µM; IC50 [27]: > 10 µM; IC50 [28]: 9.1 µM; IC50 [29]: > 10 µM; IC50 [30]: 0.0875 µM; IC50 [31]: 9.86 µM; IC50 [32]: > 10 µM; IC50 [33]: 9.1 µM; IC50 [34]: > 10 µM; IC50 [35]: 6.73 µM; IC50 [36]: 0.0853 µM; IC50 [37]: > 10 µM; IC50 [38]: > 10 µM; IC50 [39]: 0.0387 µM
